Assay results published in patent US7119105B2, “Methods for treating neurodegenerative disorders using aspartyl protease inhibitors” (The Regents of the University of California, priority 1997, dated 2006).

Tests used:
Assay type in all cases: cell-based, rat
[1] = tested on: hyperphosphorylated tau fragments (tau 29); assay: Hyperphosphorylated tau fragments (tau 29) in hippocampal slice cultures, AT8 Western blot
Protocol: (§1) Organotypic hippocampal cultures were prepared using the technique of Stoppini, et al. (J. Neurosci. Meth., 37:173–182 (1991)). Briefly, hippocampi were harvested from brains of 9–11 days old Sprague-Dawley rat pups under sterile condition. Horizontal sections vertical to the long axis of hippocampus were cut at 400 μm and collected in a cutting medium consisting of MEM (with Earle's salts, Gibco), 25 mM HEPES, 10 mM Tris Base, 10 mM Glucose, and 3 mM MgCl2 (pH 7.2). Slices were positioned onto 30 mm cell culture inserts (Millicell-CM, Millipore, Bedford, Mass.) that were placed in 6 well culture trays with 1 ml of growth medium (MEM with Hank's salts, Gibco, 20% horse serum, 3 mM glutamine, 25 mM HEPES, 5 mM NaHCO3, 25 mM glucose, 0.5 mM ascorbate, 2 mM CaCl2, 2.5 mM MgCl2, 0.5 mg/l insulin, and penicillin, pH 7.2; 9). The cultures were incubated at 35° C. with a 5% CO2-enriched atmosphere with medium changed every other day until use. Incubations were carried out for 14 days before the start of experiments. This period is sufficient for the slices to take on a variety of adult characteristics (Bahr, J Neurosci Res., 42:294–305 (1995); and Muller, et al., Dev. Brain Res., 71:93–100 (1993)).
Experiments were carried out using a yoked design in which one of the six culture trays was always used as a control and values for experimentally treated slices were expressed as percents of the same plate control. Hippocampal slice cultures were exposed to medium containing one of three cathepsin D inhibitors (see, below) or to ‘ZPAD’ (N-CBZ-L-phenylalanyl-L-alanine-diazomethylketone), a selective inhibitor of cathepsins B and L (Green, et al., J. Biol. Chem., 256:1923–1928 (1981); Richardson, et al., J. Cell Biol., 107:2097–2107 (1988); and Shaw, et al., Biochem. J., 186:385–390 (1980)). […]
(§2) Hippocampal slices were collected and sonicated in 10 mM Tris-HCl buffer (pH 7.4) containing 0.32 M sucrose, 2 mM EDTA, 2 mM EGTA, and 0.1 mM leupeptin. […] Immunoblots were scanned and the digitized images were quantitatively analyzed by densitometry using the NIH Image analysis system program.

[2] = tested on: phosphorylated tau fragment; assay: Phosphorylated tau fragments in entorhinohippocampal slice cultures (immunoblot); settings: six days; ZPAD 20 μM, CEL5-172 10 μM, EA-1 1 μM; vs control
Protocol: Briefly, the caudal pole of the cerebral hemisphere containing the entorhinal cortex and hippocampus were harvested from brains of 6–7 days old Sprague-Dawley rat pups under sterile condition. 400 μm horizontal entorhinohippocampal sections cut vertical to the long axes of hippocampus were obtained using a McIlwain tissue chopper in a cutting medium consisting of MEM (with Earle's salts, Gibco), 25 mM HEPES, 10 mM Tris Base, 10 mM Glucose, and 3 mM MgCl2 (pH 7.2). Brain tissue explants were then planted onto 30 mm cell culture inserts (Illicell-CM, Millipore, Bedford, Mass.) that were placed in 6 well culture trays with 1 mL of growth medium (MEM with Hank's salts, Gibco, 20% horse serum, 3 mM glutamine, 25 mM HEPES, 5 mM NaHCO3, 25 mM glucose, 0.5 mM ascorbate, 2 mM CaCl2, 2.5 mM MgCl2, 0.5 mg/L insulin, and penicillin, pH 7.2; Bi, et al., J. Comp. Neuro., 401, 382–394 (1998). The cultures were incubated at 35° C. with a 5% CO2-enriched atmosphere and fed every other day until use.
For western blot, entorhinohippocampal explants were collected and sonicated in 10 mM Tris-HCl buffer (pH 7.4) containing 0.32 M sucrose, 2 mM EDTA, 2 mM EGTA, and 0.1 mM leupeptin. […] Immunoblots were scanned, and the digitized images were quantitatively analyzed by densitometry using the NIH Image analysis system program. […]

[3] = tested on: native (unphosphorylated) tau; assay: Native tau isoforms and 29 kDa fragment in hippocampal slice cultures, tau 1 Western blot; settings: ZPAD six-day treatment, tau 1 antibody
Protocol: as §1, with “The cultures were incubated at 35° C. with a 5% CO2-enriched atmosphere with medium changed every other day until use. Incubations were carried out for 14 days before the start of experiments. This period is sufficient for the slices to take on a variety of adult characteristics (Bahr, J Neurosci Res., 42:294–305 (1995); and Muller, et al., Dev. Brain Res., 71:93–100 (1993)).” left out
(§3) Experiments were carried out using a yoked design in which one of the six culture trays was always used as a control and values for experimentally treated slices were expressed as percents of the same plate control. […]
as §2

29 kDa APP fragment = assay: APP fragment in entorhinohippocampal slice cultures (immunoblot, anti-C APP643-695); settings: six days; ZPAD 20 μM, CEL5-172 10 μM; vs control
Protocol: Organotypic entorhinohippocampal cultures were prepared using the technique of Stoppini, et al., J. Neurosci. Methods, 37, 173–182 (1991). Briefly, the caudal pole of the cerebral hemisphere containing the entorhinal cortex and hippocampus were harvested from brains of 6–7 days old Sprague-Dawley rat pups under sterile condition. 400 μm horizontal entorhinohippocampal sections cut vertical to the long axes of hippocampus were obtained using a McIlwain tissue chopper in a cutting medium consisting of MEM (with Earle's salts, Gibco), 25 mM HEPES, 10 mM Tris Base, 10 mM Glucose, and 3 mM MgCl2 (pH 7.2). […]
as §2, with “For western blot, entorhinohippocampal explants” for “Hippocampal slices”, “scanned,” for “scanned”, “program. […]” for “program.”

cathepsin D isoforms = assay: Cathepsin D isoforms in hippocampal slice cultures, Western blot; settings: ZPAD alone
Protocol: as §1, with “The cultures were incubated at 35° C. with a 5% CO2-enriched atmosphere with medium changed every other day until use. Incubations were carried out for 14 days before the start of experiments. This period is sufficient for the slices to take on a variety of adult characteristics (Bahr, J Neurosci Res., 42:294–305 (1995); and Muller, et al., Dev. Brain Res., 71:93–100 (1993)).” left out
as §3, §2

N-CBZ-L-phenylalanyl-L-alanine-diazomethylketone [ZPAD]
effect on tau 29 concentration, inhibitor by itself ([1]; 2-6 days, CEL5 5 μM, EA-1 at concentrations tested, ZPAD 20 μM): increased
increase in the hyperphosphorylated tau fragment (mean±s.e.m.) ([1]; ZPAD 20 μM by itself, 6 days, vs yoked control, 5 experiments): 104±18%
time at which ZPAD induced increases in phosphorylated tau fragment appeared ([1]; earliest time point tested): 48 h
concentration of phosphorylated tau fragment, inhibitor by itself [2]: increases
increase in 29 kDa fragments [3]: 101%
reduction of native tau concentrations (four isoforms) from yoked controls ([3]; n=8): 19–32%
concentration of 29 kDa APP fragment, inhibitor by itself (29 kDa APP fragment): increases
increase in heavy chain isoform of cathepsin D (cathepsin D isoforms): 70%
effect on procathepsin D (cathepsin D isoforms; 6 days): modest increases
